Data taken from US9258995B2, “Organ cold storage composition and methods of use” (BOARD OF TRUSTEES OF THE UNIVERSITY OF ARKANSAS, priority 2009, dated 2016).

Tests used:
[1] = tested on: mitochondrial respiratory complex; experiment: Mitochondrial respiratory complex activity in kidneys following cold storage (Example 1); set-up: species or system rat; conditions: following cold preservation (Example 1); MitoQ 100 μM
Protocol: FIG. 4 depicts a graph showing the effect of MitoQ treatment (100 μM) on mitochondrial respiratory complex activity in kidneys following cold storage *P<0.05 compared with control.
Rodent models of warm ischemia/reperfusion (I/R) (FIGS. 6-7) and cold renal preservation, as well as renal cell models of cold storage (FIG. 3-5) were used to evaluate the effectiveness of MitoQ in preventing renal damage during ischemia. […] In addition, Mito Q blunted mitochondrial superoxide production (Mitosox Red staining) and respiratory complex dysfunction following cold preservation (FIGS. 4-5).

[2] = tested on: mitochondrial respiratory complex II; experiment: Mitochondrial respiratory complex activity, rat kidney mitochondria after CS; conditions: rat kidneys, 4-h CS, 100 μM
Protocol: (§1) All animals were treated according to the National Institutes of Health Guide for the Care and Use of Laboratory Animals and the University of Arkansas for Medical Sciences Institutional Animal Care and Use Committee guidelines. Male Fischer 344 inbred rats (Charles Rivers Laboratories, Inc., Wilmington, Mass.) weighing between 250 and 300 g were anesthetized with ethrane, followed by shaving and prepping with betadine. […] Bulldog clamps were placed on the aorta and vena cava (proximal and distal to the renal vessels) to prevent blood flow to the kidneys. A 22-gauge surgical needle was used to puncture the rat's aorta to flush the renal grafts with saline (10 ml per kidney) using a small catheter. Once the kidneys started to turn light brown (perfusion), another vent was formed in the vena cava to allow blood flow from the kidneys. Once both kidneys were completely flushed, the right kidney was recovered and served as a control (group 1), and the left kidney was exposed to CS alone for 4 h at 4° C. (group 2). In additional experiments, kidneys were flushed with saline through the aorta using a small catheter followed by flushing the right kidney with saline containing MitoQ (100 μM) and the left kidney with saline containing DecylTPP (100 μM) (10 ml per kidney). Tissues were recovered and stored in CS+MitoQ (100 μM; right kidney) or CS+DecylTPP (100 μM; left kidney) for 4 h at 4° C. (groups 3 and 4, respectively). A thin middle section from all of the kidneys were cut and immediately fixed in 10% formalin before being embedded in paraffin for sectioning (4 μm) and histological evaluation. The remaining portion of the kidneys were quickly frozen in liquid nitrogen and stored in −80° C. until needed for biochemistry analyses.
(§2) NRK cell and rat kidney mitochondria were isolated by centrifugation on a sucrose density gradient. The activity of mitochondrial respiratory complexes I, II, III, or IV were assayed spectrophotometrically using 100 μg of mitochondrial protein at 30° C. as previously described.

[3] = tested on: mitochondrial respiratory complex I; experiment: as above; conditions: rat kidneys, 4-h CS, 100 μM
Protocol: as §1, §2

With `COC1=C(OC)C(=O)C(CCCCCCCCCC[P+](c2ccccc2)(c2ccccc2)c2ccccc2)=C(C)C1=O` [MitoQ, mitoquinone] the respiratory complex dysfunction [1] was “blunted”, the “complex II inactivation” value [2] was “protected” and the “complex I inactivation” value [3] was “protected”.
